Measured values from patent US6410265B1, “Gene encoding a putive efflux protein for solvents/antibiotics in Pseudomonas mendocina” (priority 1997, dated 2002).

Experiments:
4.5X(−) Pseudomonas = experiment: Antibiotic resistance: colony growth on LB/agar plates with antibiotics; type: cell-based, Pseudomonas mendocina; details: strain with disrupted 4.5X gene; agar plates, concentration ranging from 5 1μg/mL to 25 μg/mL
Experimental: (§1) The transformed Pseudomonas mendocina KR-1, carrying the disrupted putative efflux 4.5X gene, was grown on the agar plates in the presence of different antibiotics or high concentration of PHBA. The growth of the strain with the disrupted 4.5X gene was compared with that of wild type Pseudomonas mendocina strain KR-1.
The colonies were innoculated on the LB plates with different antibiotics separately. The antibiotics include Amp (50 μg/mL), Strep (10 μg/mL), Tec (10 μg/mL), Kam (25 μg/mL) and CM (5 μg/mL, 15 μg/mL and 25 μg/mL). The plates were kept at 30° C. for 48 hour. The growth of the colonies was scored based on the growth of wildtype strain KR-1 and the growth of these colonies on LB plates.

4.5X(−) = experiment: Sensitivity to PHBA: cell growth in liquid minimal medium by optical density; type: cell-based, Pseudomonas mendocina; details: in the presence of 50 mM PHBA, same condition for both strains
Experimental: as §1
The cells were innoculated in the liquid medium consisting of minimal medium (in 1 L solution, sodium phosphate, monobasic, 1.85 g; potassium phosphate, dibasic, 5.84 g; ammonia sulphate, 1.5 g; yeast extract, 500 mg; 1x minerals, 2% glucose and 50 mM PHBA). The cultures were kept at 30° C. in a shaker incubator for 48 hours. The cell growth was monitored by optical density (O.D) measurements using a spectrophotometer.

| Compound | Growth on plates with chloramphenicol (4.5X(−) Pseudomonas) | Growth of 4.5X(−) strain relative to wildtype strain (4.5X(−)) |
| --- | --- | --- |
| O=C(N[C@H](CO)[C@H](O)c1ccc([N+](=O)[O-])cc1)C(Cl)Cl [CM, choromphenecol] | unable to grow | – |
| O=C(O)c1ccc(O)cc1 [PHBA, p-hydroxybenzoic acid] | – | four times slower |
